Measured values from PubChem BioAssay AID1189 (EPA DSSTox, 2008).
Activity calls are given as the source filed them.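 How the source made its calls: active means a tumor-causing dose value with its tumor site reported for any sex and species group of a rodent or other animal cancer study; inconclusive means only studies judged inadequate by the national testing program; inactive means tested in at least one study, none positive.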

Assay: DSSTox (CPDBAS) Carcinogenic Potency Database Summary SingleCellCall Results
Conditions: animal chronic carcinogenicity bioassays, CPDB summary call
Method in brief: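 Categorical carcinogenicity call compiled from published chronic rodent and other animal cancer bioassays; based on the most positive result across experiments for each sex-species, assigned on minimal evidence for or against activity.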

Row | SMILES | outcome
1 | NS(=O)(=O)c1cc2c(cc1Cl)NCNS2(=O)=O | inactive; active
2 | Cc1ccc(N=Nc2c(O)c(S(=O)(=O)O)cc3ccc(S(=O)(=O)O)cc23)c(C)c1 | active; inactive
3 | COc1ccccc1N | active
4 | ClCCCl | active
5 | CC(=O)CN(N=O)C(=O)NCCCl | active
6 | CC(C)n1c(/C=C/[C@@H](O)C[C@@H](O)CC(=O)O)c(-c2ccc(F)cc2)c2ccccc21 | active
7 | O=c1[nH]c(=O)n(C2CCCO2)cc1F (stereo unspecified) | inactive
8 | CC(=O)NN | active
9 | ClC(Cl)C(Cl)(Cl)Cl | active
10 | CC(O)CO (stereo unspecified) | inactive
11 | CN(N=O)C(=O)NCCC[C@H](N)C(=O)O | active
12 | CN1C(C(=O)Nc2ccccn2)=C(O)c2sc(Cl)cc2S1(=O)=O | inactive
13 | CC(C)COC(=O)c1ccc(O)cc1 | inactive
14 | CN1C(=O)OC(C)(C)C1=O | inactive
15 | CN1C(=O)C(O)N=C(c2ccccc2)c2cc(Cl)ccc21 (stereo unspecified) | inactive
16 | O=[N+]([O-])O | inactive; active
17 | COC(C)(C)C | active
18 | OCCN(CCO)CCO | active; inactive
19 | C/C=C1/C[C@@H](C)[C@@](C)(O)C(=O)OC/C2=C/CN(C)CC[C@@H](OC1=O)C2=O | active
20 | CCCN(CCC)c1c([N+](=O)[O-])cc(C(F)(F)F)cc1[N+](=O)[O-] | active
21 | CN1[C@@H]2CC(OC(=O)[C@@H](CO)c3ccccc3)C[C@H]1[C@@H]1O[C@@H]12 (stereo partly specified) | inactive
22 | Clc1ccc(Cl)cc1 | active
23 | c1ccc2sc(SNC3CCCCC3)nc2c1 | inactive
24 | NC(=O)CCCCC(N)=O | inactive; active
25 | CC1=CC(=O)CC(C)(C)C1 | active

Row | SMILES | outcome
26 | Cc1cc(-c2ccc(N)c(C)c2)ccc1N | active
27 | CN(C#N)N=O | active
28 | S=c1nc[nH]c2nc[nH]c12 | inactive; active
29 | NNC=O | active
30 | Cc1c(C)c2c(c(C)c1O)CCC(C)(CCCC(C)CCCC(C)CCCC(C)C)O2 (stereo unspecified) | inactive
31 | [Cl-].[Hg+] | inactive; active
32 | Nc1ccc2cc3ccc(N)cc3nc2c1 | inactive
33 | CCC(Br)(CC)C(=O)NC(N)=O | inactive
34 | CCCCCCCCCCCCC(=O)COC1=C(O)C(=O)O[C@@H]1[C@@H](O)CO | inactive
35 | COc1cc(OC)c2c3c(c(=O)oc2c1)CCC3=O | inactive
36 | c1cc(OCC2CO2)cc(OCC2CO2)c1 (stereo unspecified) | active
37 | C1CCCNCCC1 | inactive
38 | CCC1NC(=O)C2C(Cl)C(Cl)CN2C(=O)C(CO)NC(=O)CC(c2ccccc2)NC(=O)C(CO)NC1=O (stereo unspecified) | active; inactive
39 | CNC(=O)CSP(=S)(OC)OC | inactive
40 | C=COC(C)=O | active
41 | O.O.O.O.O.O.O.O=S(=O)([O-])[O-].[Co+2] | active
42 | C1CCOC1 | active; inactive
43 | CCOC(=O)C(C)(C)Oc1ccc(Cl)cc1 | active
44 | Cc1ccc2ccccc2c1 | inactive; active
45 | F | inactive
46 | CC(C)Oc1ccc(Nc2ccccc2)cc1 | inactive
47 | CCCCNC(N)=O | inactive
48 | CCCCC(CC)COC(=O)c1ccccc1C(=O)OCC(CC)CCCC (stereo unspecified) | active
49 | Cc1cccc(C)c1NC1=NCCCS1 | inactive
50 | CC(C)(C)NCC(O)c1ccc(O)c(CO)c1 (stereo unspecified) | active; inactive

Row | SMILES | outcome
51 | C#CC(OC(N)=O)(c1ccccc1)c1ccc(Cl)cc1 (stereo unspecified) | active; inactive
52 | Cc1cccc2cccnc12 | inactive
53 | CCCCCNN | active
54 | CN1C2CC[C@@H]1CC(NC(=O)c1cc(Cl)cc3c1OC(C)(C)C3)C2 (stereo partly specified) | inactive
55 | NC(=O)OCC(COC(N)=O)c1ccccc1 | active; inactive
56 | NC(=O)N(CCc1ccccc1)N=O | active
57 | N=C1C=CC(=C(c2ccc(N)cc2)c2ccc(N)cc2)C=C1 | active
58 | CN(C)Nc1nc(-c2ccc([N+](=O)[O-])o2)cs1 | active; inactive
59 | CN(C)N | active
60 | Cc1c(N)cccc1N | inactive
61 | O=C(N[C@H](CO)[C@H](O)c1ccc([N+](=O)[O-])cc1)C(Cl)Cl | inactive
62 | Clc1cnc(Oc2ccc(Oc3ncc(Cl)cc3Cl)cc2)c(Cl)c1 | inactive
63 | CCCCCCCCCCCCCCN(C)N=O | active
64 | CNC(=O)O/N=C(\SC)C(=O)N(C)C | inactive
65 | CN[C@H]1CCc2cc(OC)c(OC)c(OC)c2-c2ccc(OC)c(=O)cc21 | inactive
66 | CCOc1nc2cccc(C(=O)OC(C)OC(=O)OC3CCCCC3)c2n1Cc1ccc(-c2ccccc2-c2nn[nH]n2)cc1 (stereo unspecified) | inactive
67 | COc1cc(/C=C/C(=O)OCCc2ccccc2)ccc1O | inactive; active
68 | CC(Cc1ccccc1)NN (stereo unspecified) | inactive
69 | O=C(O)CN(CCN(CC(=O)O)CC(=O)O)CC(=O)O | inactive
70 | CCCN(N=O)C(=N)N[N+](=O)[O-] | active
71 | C[C@H](CCC(=O)O)[C@H]1CC[C@H]2[C@@H]3CC[C@@H]4C[C@H](O)CC[C@]4(C)[C@H]3CC[C@]12C | inactive
72 | CC1CN(N=O)C(=O)O1 (stereo unspecified) | active
73 | CCCCCC(N)=O | active
74 | [O]=[Cr](=[O])([OH])[O][Cr](=[O])(=[O])[OH] | active
75 | COc1ccc(N)cc1N | active

Row | SMILES | outcome
76 | O=[N+]([O-])c1ccc(-c2nc(N3CCOCC3)c3ccccc3n2)s1 | active
77 | c1ccc(OCC2CO2)cc1 (stereo unspecified) | active
78 | FCCl | active
79 | O=[N+]([O-])c1ccccc1 | active
80 | C=C1C[C@@]23CC[C@H]4[C@@](C)(CCC[C@@]4(C)C(=O)O[C@@H]4O[C@H](CO)[C@@H](O)[C@H](O)[C@H]4O)[C@@H]2CC[C@]1(O[C@@H]1O[C@H](CO)[C@@H](O)[C@H](O)[C@H]1O[C@@H]1O[C@H](CO)[C@@H](O)[C@H](O)[C@H]1O)C3 | inactive
81 | CN(C)c1ccc(C(=N)c2ccc(N(C)C)cc2)cc1 | active
82 | CC[C@H](C)[C@H]1O[C@]2(CC[C@@H]1C)C[C@@H]1C[C@@H](C/C=C(\C)[C@@H](O[C@H]3C[C@H](OC)[C@@H](O[C@H]4C[C@H](OC)[C@@H](O)[C@H](C)O4)[C@H](C)O3)[C@@H](C)/C=C/C=C3\CO[C@@H]4[C@H](O)C(C)=C[C@@H](C(=O)O1)[C@]34O)O2 | inactive
83 | O=C(O)c1cc(Oc2ccc(C(F)(F)F)cc2Cl)ccc1[N+](=O)[O-] | active
84 | C1C2OC2C2C1C1CC2C2OC12 (stereo unspecified) | inactive
85 | COc1ccc([N+](=O)[O-])cc1N=Nc1c(O)c(C(=O)Nc2cccc([N+](=O)[O-])c2)cc2ccccc12 | inactive; active
86 | [O]=[Bi] | inactive; active
87 | O=S(=O)([O-])[O-].[Cd+2] | active; inactive
88 | O=[N+]([O-])c1ccc(-c2cnc3ccccn23)o1 | active
89 | CCOC(=O)C1OC1(C)c1ccccc1 (stereo unspecified) | inactive
90 | CN(C)C(=S)[S-].CN(C)C(=S)[S-].[Cu+2] | inactive
91 | CCn1nc(C)c2c1C(c1ccccc1)=NCC(=O)N2 | active
92 | COc1cc(-c2ccc(N=Nc3c(S(=O)(=O)O)cc4cc(S(=O)(=O)O)cc(N)c4c3O)c(OC)c2)ccc1N=Nc1c(S(=O)(=O)O)cc2cc(S(=O)(=O)O)cc(N)c2c1O | active
93 | C1CCNCC1 | inactive; active
94 | CCC1(c2ccccc2)C(=O)NC(=O)NC1=O | active
95 | CC[C@H]1OC(=O)[C@H](C)[C@@H](O[C@H]2C[C@@](C)(OC)[C@@H](O)[C@H](C)O2)[C@H](C)[C@@H](O[C@@H]2O[C@H](C)C[C@H](N(C)C)[C@H]2O)[C@](C)(O)C[C@@H](C)C(=O)[C@H](C)[C@@H](O)[C@]1(C)O | inactive; active
96 | CC(C)Cc1ccc(C(C)C(=O)O)cc1 (stereo unspecified) | inactive
97 | Cc1c(COC(=O)C2C(/C=C(\Cl)C(F)(F)F)C2(C)C)cccc1-c1ccccc1 (stereo unspecified) | inactive; active
98 | C1N2CN3CN1CN(C2)C3 | inactive; active
99 | Nc1ccc(-c2ccc(N)c(O)c2)cc1O | active
100 | Cc1ccc2c(-c3ccccc3)nc(=O)n(C(C)C)c2c1 | inactive

Row | SMILES | outcome
101 | Cc1nnc2n1-c1sc(CCc3ccc(CC(C)C)cc3)cc1C(c1ccccc1Cl)=NC2C (stereo unspecified) | inactive
102 | C=CCN(CC(C)=O)N=O | active
103 | CCC(=O)C(CC(C)N(C)C)(c1ccccc1)c1ccccc1 (stereo unspecified) | inactive
104 | Cc1c(N)nc(C)c2c1[nH]c1ccccc12 | active
105 | c1ccccc1 | active
106 | CN(N=O)c1ncnc2c1ncn2[C@@H]1O[C@H](CO)[C@@H](O)[C@H]1O | active
107 | O=CNNC=O | active
108 | CCN(CC)CCOc1ccc(/C(=C(\Cl)c2ccccc2)c2ccccc2)cc1 | inactive; active
109 | O=CNNc1nc(-c2ccc([N+](=O)[O-])o2)cs1 | active
110 | C=C(C)CCl | active; inactive
111 | CC1CN(N=O)C(=O)NC1=O (stereo unspecified) | inactive
112 | Cc1cc(O)cc(C)c1N(C)C | inactive; active
113 | CCOP(=S)(OCC)Oc1ccc([N+](=O)[O-])cc1 | inactive; active
114 | C[C@]12C=CC(=O)C=C1CC[C@@H]1[C@@H]2[C@@H](O)C[C@@]2(C)[C@H]1CC[C@]2(O)C(=O)CO | active
115 | CNCc1ccc(CSCCNC(=NCC(O)c2ccc(O)cc2)NS(C)(=O)=O)o1 (stereo unspecified) | active; inactive
116 | NC(N)=S | active; inactive
117 | CC(=O)OC(OC(C)=O)c1ccc([N+](=O)[O-])o1 | inactive
118 | O=[N+]([O-])c1ccc(O)c([N+](=O)[O-])c1 | inactive
119 | Cn1cnc([N+](=O)[O-])c1Sc1ncnc2nc[nH]c12 | active
120 | c1ccc2c(c1)ccc1cc3c(ccc4ccccc43)cc12 | active
121 | OC(O)C(Cl)(Cl)Cl | active; inactive
